Measured values reported in ChEMBL document CHEMBL1201862, “PubChem BioAssay data set” (2004).
Activity calls are given as the source filed them.

Legend:
H9c2 = test: cells; type: functional, cell-based; settings: Rattus norvegicus, H9c2, Myocardium;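 also: confirmatory concentration-response retest of ultra-high-throughput screening hits for modulation of myocardial damage; cell death induced by hydrogen peroxide oxidative stress; compound pretreatment for 60 min then peroxide exposure for 2 h; potency is for protecting the cells against peroxide damage rather than for killing them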
Cytochrome P450 3A4 = Cytochrome P450 3A4 (Homo sapiens, UniProt P08684); settings: Potency;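 also: confirmatory qHTS run detecting inhibitors and substrates of CYP3A4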
[1] = target: T1, Endoribonuclease toxin MazF (Escherichia coli K-12, UniProt P0AE70); test: MazF toxin RNase activators, dose response, biochemical, fluorescence, single-stranded RNA substrate, uHTS hits (AID 588481); type: functional
T1 sequence (P0AE70 whole entry): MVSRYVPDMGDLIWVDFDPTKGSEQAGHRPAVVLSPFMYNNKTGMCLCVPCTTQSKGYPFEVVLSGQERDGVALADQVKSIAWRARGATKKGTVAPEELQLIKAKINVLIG

[2] = target: T1, Endoribonuclease toxin MazF; test: fluorescent RNA oligo signal without MazF, dose response, counter-screen for MazEF activator project, biochemical, fluorescence, single-stranded RNase substrate (AID 588502); type: functional
[3] = NIH-3T3 fibroblast cytotoxicity, dose response, cytotoxicity control, cell-based, fluorescence, Alamar Blue, secondary assay (AID 2327); type: functional;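 also: NIH-3T3 mouse fibroblasts cultured with fluconazole at 8 µg/mL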
[4] = C. albicans growth with fluconazole, confirmation, fluorescence, retest (AID 2467); type: functional, cell-based
BJ [5] = test: cells; type: functional, cell-based; settings: Homo sapiens
BJ [6] = test: cytotoxicity toward BJ-TERT fibroblasts, dose response, cell-based, RAS-independent, luminescence (AID 1933); type: functional; settings: Homo sapiens
INS1 = test: beta cell apoptosis inhibitors, cytokine rescue, dose response, luminescence, retest (AID 449756); type: functional, cell-based; settings: Rattus norvegicus;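 also: cell death triggered by IL-1 beta plus TNF-alpha plus IFN-gamma mixture; protective hits raise ATP signal compared with cytokine alone wells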
BJ [7] = test: cytotoxicity toward BJ-TERT-LT-ST fibroblasts, dose response, cell-based, RAS-independent, luminescence (AID 1935); type: functional; settings: Homo sapiens;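 also: BJ fibroblasts immortalized with TERT plus LT and ST oncogenes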
[8] = cytotoxicity toward DRD oncogenic fibroblasts, dose response, cell-based, non-viral oncogenic, luminescence (AID 1934); type: functional; settings: Homo sapiens
[9] = inhibitors of firefly luciferase expression or activity, dose response, H4 neuroglioma cells, luminescence (AID 1990); type: functional, cell-based
[10] = Luminescence Cell-Based Dose Response HTS to Identify Inhibitors of 5'UTR Stem-Loop Driven Prion Protein mRNA Translation in H4 Neuroglioblastoma Cells. [Related pubchem assays: 1827 (Project Summary), 1813 (Primary HTS)]; type: functional
[11] = inhibitors of SNCA 5'UTR-driven reporter translation, confirmation, H4 neuroglioma cells, luminescence (AID 1988); type: functional, cell-based
Large T antigen = Large T antigen (Simian virus 40, UniProt P03070); type: functional, Betapolyomavirus macacae;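 also: Confirmatory-stage PubChem screen for compounds that inhibit SV40 T antigen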
[12] = target: T2, Rac GTPase-activating protein 1 (Homo sapiens, UniProt Q9H0H5); test: MgcRacGAP GTPase-activating activity inhibitors, confirmation, biochemical, ADP Hunter fluorescence, primary and confirmatory (AID 624330); type: functional
T2 sequence (Q9H0H5 whole entry): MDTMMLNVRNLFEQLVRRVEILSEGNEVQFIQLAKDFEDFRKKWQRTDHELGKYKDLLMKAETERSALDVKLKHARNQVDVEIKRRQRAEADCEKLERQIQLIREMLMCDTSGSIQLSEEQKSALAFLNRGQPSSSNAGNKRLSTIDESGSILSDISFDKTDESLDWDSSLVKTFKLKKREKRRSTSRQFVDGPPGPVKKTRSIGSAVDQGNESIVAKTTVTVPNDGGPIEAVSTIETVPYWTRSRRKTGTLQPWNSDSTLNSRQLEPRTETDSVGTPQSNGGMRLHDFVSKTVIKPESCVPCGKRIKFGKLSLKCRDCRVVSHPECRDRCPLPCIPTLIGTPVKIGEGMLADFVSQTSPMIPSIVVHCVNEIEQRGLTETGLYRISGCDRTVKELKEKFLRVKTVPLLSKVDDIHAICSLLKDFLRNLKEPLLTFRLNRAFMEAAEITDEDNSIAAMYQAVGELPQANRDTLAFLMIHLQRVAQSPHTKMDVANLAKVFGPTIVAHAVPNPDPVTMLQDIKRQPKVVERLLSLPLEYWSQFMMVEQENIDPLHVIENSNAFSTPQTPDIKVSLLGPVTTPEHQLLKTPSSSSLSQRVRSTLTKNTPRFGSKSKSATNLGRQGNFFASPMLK

[13] = target: Heat shock protein HSP 90-alpha (Homo sapiens, UniProt P07900); type: functional, organism-based
Fatty acid synthase [14] = target: T3, Fatty acid synthase (Homo sapiens, UniProt P49327); test: FAS thioesterase domain inhibitors, dose response, biochemical, endpoint fluorescence intensity, uHTS hits (AID 624327); type: functional;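 also: fluorescence from hydrolysis of an O-methyl fluorescein acyl ester substrate by the enzyme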
Fatty acid synthase [15] = target: T3, Fatty acid synthase; test: FAS thioesterase domain inhibitors, dose response, biochemical, kinetic fluorescence intensity (AID 624326); type: functional;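 also: rate of fluorescence rise from hydrolysis of a fluorogenic O-methyl fluorescein ester substrate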
[16] = target: T4, Corticotropin-releasing factor receptor 2/Corticotropin-releasing factor-binding protein (Homo sapiens, UniProt P24387+Q13324); test: activators of CRF receptor 2 with binding protein – uHTS hits, confirmation (AID 602473); type: functional; settings: read-out: EC50_Mean
T4 sequence (Q13324 whole entry): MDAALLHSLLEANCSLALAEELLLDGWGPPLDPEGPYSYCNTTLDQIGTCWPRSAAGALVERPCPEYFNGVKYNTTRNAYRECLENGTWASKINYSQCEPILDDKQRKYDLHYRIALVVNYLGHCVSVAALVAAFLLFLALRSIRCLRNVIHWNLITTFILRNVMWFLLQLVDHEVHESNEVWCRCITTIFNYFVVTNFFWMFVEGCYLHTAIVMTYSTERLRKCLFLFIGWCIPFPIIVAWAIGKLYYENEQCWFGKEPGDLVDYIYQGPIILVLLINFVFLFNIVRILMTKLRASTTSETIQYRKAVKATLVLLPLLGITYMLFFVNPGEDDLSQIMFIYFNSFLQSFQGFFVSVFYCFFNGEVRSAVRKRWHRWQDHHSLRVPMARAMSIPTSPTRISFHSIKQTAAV
T4 sequence (P24387 whole entry): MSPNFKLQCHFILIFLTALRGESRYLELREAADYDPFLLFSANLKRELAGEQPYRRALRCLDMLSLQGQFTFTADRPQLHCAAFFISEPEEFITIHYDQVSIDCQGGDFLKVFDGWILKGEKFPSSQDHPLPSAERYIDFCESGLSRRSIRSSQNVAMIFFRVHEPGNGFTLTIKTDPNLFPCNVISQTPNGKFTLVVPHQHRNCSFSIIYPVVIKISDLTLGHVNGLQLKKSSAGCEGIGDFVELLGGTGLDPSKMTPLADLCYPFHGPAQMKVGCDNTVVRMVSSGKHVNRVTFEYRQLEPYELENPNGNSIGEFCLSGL

[17] = target: T4, Corticotropin-releasing factor receptor 2/Corticotropin-releasing factor-binding protein; test: Dose Response confirmation of uHTS hits for small molecule antagonists of the CRF-binding protein and CRF-R2 receptor complex.; type: functional; settings: read-out: IC50_Mean
[18] = microbe, parasite or virus in culture; type: functional; settings: Mycobacterium tuberculosis
Streptokinase A = target: T5, Streptokinase A (Streptococcus pyogenes serotype M1, UniProt P10520); test: S. pyogenes streptokinase expression inhibitors, potency, dose response, plasminogen activation absorbance, OD405 (AID 1914); type: functional, Streptococcus pyogenes M1 GAS;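 also: secreted streptokinase activity via plasminogen activation per viability signal from cell pellet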
T5 sequence (P10520 whole entry): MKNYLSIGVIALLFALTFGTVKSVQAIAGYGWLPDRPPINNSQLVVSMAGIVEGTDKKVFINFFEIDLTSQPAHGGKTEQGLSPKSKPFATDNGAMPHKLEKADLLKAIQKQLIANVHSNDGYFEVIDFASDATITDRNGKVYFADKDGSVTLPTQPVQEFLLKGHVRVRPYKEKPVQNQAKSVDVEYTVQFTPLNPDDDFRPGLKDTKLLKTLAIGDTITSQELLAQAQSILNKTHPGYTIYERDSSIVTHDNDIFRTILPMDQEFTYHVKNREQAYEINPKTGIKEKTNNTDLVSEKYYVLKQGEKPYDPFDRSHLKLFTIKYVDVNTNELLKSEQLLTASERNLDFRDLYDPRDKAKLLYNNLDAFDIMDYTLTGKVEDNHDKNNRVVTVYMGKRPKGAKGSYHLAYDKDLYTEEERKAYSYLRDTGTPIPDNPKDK

Streptococcus = test: Group A Streptococcus viability loss, dose response, counter-screen for streptokinase expression inhibitor project, luminescence, BacTiterGlo (AID 1915); type: functional, organism-based;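 also: potency for reduction of bacterial viability or growth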
[19] = tested on: Streptococcus sp. 'group A'; test: growth inhibition of control SK(-) GAS strain, dose response, counter-screen for streptokinase expression inhibitor project, luminescence, kanamycin, BacTiterGlo, confirmation (AID 1900); type: functional, organism-based

Large T antigen, sequence (P03070 whole entry): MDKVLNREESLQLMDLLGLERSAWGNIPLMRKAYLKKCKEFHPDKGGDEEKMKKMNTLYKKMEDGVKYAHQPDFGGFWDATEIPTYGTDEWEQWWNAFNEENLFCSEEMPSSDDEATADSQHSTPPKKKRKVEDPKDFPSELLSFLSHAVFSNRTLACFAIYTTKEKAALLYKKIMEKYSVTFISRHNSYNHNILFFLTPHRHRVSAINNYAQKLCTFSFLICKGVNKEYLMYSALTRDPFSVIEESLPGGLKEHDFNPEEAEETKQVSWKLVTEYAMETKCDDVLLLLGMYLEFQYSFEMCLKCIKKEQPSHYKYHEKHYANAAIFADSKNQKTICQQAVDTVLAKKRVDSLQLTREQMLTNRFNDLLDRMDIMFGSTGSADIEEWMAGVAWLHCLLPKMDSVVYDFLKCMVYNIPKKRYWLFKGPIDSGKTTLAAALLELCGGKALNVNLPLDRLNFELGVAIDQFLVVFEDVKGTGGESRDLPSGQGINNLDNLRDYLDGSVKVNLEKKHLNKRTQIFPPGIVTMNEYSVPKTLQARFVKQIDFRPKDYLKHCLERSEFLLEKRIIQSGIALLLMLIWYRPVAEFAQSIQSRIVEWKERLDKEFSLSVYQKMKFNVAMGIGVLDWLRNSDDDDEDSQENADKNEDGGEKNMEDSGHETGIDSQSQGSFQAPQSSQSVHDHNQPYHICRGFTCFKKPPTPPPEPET
Cytochrome P450 3A4, sequence (P08684 whole entry): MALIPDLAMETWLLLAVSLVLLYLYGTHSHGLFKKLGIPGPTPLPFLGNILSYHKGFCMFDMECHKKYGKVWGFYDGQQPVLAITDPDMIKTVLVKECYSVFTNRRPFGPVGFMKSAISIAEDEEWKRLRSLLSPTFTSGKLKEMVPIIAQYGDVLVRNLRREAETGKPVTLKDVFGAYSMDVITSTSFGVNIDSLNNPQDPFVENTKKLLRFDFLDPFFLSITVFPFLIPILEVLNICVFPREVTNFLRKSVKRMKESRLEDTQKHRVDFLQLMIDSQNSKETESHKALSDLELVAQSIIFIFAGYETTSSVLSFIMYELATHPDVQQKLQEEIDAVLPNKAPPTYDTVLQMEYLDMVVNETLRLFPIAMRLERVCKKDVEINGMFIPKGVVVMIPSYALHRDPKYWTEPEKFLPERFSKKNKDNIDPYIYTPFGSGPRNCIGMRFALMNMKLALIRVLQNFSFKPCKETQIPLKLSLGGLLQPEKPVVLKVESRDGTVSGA
T3 sequence (P49327 whole entry, the tested form may be a part): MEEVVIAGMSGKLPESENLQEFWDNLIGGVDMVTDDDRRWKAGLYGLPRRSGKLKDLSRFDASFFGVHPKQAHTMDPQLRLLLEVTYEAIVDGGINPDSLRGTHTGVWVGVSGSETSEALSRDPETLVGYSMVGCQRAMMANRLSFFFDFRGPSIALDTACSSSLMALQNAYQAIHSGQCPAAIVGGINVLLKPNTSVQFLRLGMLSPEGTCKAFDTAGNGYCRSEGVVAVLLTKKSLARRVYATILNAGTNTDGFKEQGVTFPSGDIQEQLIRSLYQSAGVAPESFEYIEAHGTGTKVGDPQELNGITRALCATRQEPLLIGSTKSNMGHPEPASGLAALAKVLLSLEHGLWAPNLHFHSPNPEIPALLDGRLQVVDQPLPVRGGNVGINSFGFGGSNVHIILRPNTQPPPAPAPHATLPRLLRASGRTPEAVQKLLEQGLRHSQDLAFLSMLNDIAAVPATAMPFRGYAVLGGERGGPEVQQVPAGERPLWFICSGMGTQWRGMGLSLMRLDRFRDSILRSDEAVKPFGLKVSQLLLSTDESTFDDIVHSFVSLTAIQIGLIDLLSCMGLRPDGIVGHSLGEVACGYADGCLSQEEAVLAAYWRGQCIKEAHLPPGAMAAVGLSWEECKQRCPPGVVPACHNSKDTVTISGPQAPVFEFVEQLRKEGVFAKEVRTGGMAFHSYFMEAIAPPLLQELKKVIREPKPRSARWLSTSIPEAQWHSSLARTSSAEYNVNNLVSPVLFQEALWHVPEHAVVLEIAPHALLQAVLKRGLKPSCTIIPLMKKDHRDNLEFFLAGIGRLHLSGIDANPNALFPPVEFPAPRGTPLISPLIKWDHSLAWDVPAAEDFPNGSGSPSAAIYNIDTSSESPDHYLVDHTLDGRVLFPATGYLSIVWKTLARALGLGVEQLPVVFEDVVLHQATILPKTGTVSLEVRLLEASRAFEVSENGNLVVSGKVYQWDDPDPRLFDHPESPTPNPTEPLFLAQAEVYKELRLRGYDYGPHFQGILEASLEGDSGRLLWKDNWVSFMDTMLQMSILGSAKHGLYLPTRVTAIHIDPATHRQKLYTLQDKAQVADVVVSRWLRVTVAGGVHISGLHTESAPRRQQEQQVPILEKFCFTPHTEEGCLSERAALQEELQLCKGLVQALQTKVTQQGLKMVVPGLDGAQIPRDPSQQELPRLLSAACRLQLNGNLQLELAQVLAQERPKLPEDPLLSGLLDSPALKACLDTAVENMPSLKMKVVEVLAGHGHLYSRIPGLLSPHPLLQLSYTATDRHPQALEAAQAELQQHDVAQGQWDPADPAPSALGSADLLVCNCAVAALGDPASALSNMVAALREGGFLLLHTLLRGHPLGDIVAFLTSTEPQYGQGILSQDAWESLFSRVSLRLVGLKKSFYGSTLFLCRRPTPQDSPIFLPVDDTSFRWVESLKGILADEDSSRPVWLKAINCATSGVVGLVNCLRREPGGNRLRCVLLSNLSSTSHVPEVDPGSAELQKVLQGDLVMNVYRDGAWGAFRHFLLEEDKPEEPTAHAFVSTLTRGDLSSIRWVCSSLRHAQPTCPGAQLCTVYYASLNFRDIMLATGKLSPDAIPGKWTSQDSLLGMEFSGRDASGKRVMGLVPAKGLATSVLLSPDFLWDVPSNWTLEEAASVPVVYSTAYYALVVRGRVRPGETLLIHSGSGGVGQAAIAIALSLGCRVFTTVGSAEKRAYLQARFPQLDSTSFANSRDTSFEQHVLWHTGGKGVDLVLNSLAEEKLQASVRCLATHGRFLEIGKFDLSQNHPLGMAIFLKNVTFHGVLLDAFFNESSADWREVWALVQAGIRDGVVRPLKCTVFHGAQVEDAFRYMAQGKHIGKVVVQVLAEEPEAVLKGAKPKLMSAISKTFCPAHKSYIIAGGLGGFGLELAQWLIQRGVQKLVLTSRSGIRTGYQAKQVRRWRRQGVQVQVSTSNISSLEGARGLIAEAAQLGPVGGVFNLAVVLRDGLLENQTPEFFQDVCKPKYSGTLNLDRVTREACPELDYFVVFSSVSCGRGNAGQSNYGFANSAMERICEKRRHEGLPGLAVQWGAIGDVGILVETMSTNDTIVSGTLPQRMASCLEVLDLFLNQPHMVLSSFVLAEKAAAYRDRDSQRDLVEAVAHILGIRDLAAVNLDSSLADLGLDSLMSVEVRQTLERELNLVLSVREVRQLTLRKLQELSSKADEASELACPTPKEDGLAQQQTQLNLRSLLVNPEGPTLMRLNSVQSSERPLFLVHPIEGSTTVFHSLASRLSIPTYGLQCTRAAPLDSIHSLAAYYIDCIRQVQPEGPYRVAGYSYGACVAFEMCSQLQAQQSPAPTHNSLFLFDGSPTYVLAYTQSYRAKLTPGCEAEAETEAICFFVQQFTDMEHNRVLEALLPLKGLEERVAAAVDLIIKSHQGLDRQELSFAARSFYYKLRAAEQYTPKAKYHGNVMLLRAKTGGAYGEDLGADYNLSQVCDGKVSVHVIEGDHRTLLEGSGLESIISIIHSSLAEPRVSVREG

COc1ccc(NC(=O)C(OC(=O)c2ccc([N+](=O)[O-])o2)c2ccccc2)cc1Cl (configuration not stated)
IC50 (H9c2): > 79 µM (inactive)

Clc1nccc2c1ccc1ccccc12
AC50 (Cytochrome P450 3A4): 12.6 µM (inconclusive)

CCOC(=O)c1ccc(CC(=O)c2oc3cc(O)ccc3c2C)o1
EC50 [1]: > 99 µM (inactive) | EC50 [2]: 81.2 µM (inactive)

CCCn1c(-c2ccc(F)cc2)nc2c(NC(C)CN(C)C)nc(C)nc21 (configuration not stated)
AC50 (Cytochrome P450 3A4): 20 µM (inconclusive)

CCc1ccc(C2=NN(S(C)(=O)=O)C(c3cccs3)C2)cc1 (configuration not stated)
EC50 [1]: > 99 µM (inactive) | EC50 [2]: > 99 µM (inactive)

Cc1cc(C)n(-c2nc3nonc3nc2Nc2cccc(C)c2C)n1
EC50 [1]: > 99 µM (inactive) | EC50 [2]: > 99 µM (inactive)

COc1cc(O)cc(/C=C/c2ccccc2)c1 [PINOSYLVIN METHYL ETHER]
AC50 (Cytochrome P450 3A4): 31.6 µM (inconclusive)

CCn1cc(/C=C/c2cc[n+](C)cc2)c2ccccc21
EC50 [3]: > 150 µM (inconclusive) | EC50 [4]: 0.946 µM (active) | EC50 (BJ [5]): > 150 µM (not active) | EC50 (BJ [6]): 23.8 µM (active) | AC50 (INS1): 4.58 µM (active) | EC50 (BJ [7]): > 150 µM (not active) | EC50 [8]: > 150 µM (not active)

COc1ccc(-c2nn(-c3ccccc3)cc2/C=N/NC(=S)NC(C)C)cc1OC
EC50 [3]: 22.9 µM (active) | EC50 [4]: > 38 µM (not active) | EC50 [9]: 20.2 µM (active) | EC50 [10]: > 120 µM (not active) | EC50 [11]: 48.4 µM (active)

CCOc1cc(/C=N/Nc2nc(C)cc(O)n2)ccc1O
IC50 (Large T antigen): 24.9 µM (active)

Oc1ccc(Nc2nc(NCC3CCCO3)c3ccccc3n2)cc1 (configuration not stated)
IC50 (Large T antigen): 9.48 µM (active)

CCOC(=O)c1[nH]c2ccc(C)cc2c1N
EC50 [3]: > 160 µM (inconclusive) | EC50 [4]: > 38 µM (not active) | IC50 [12]: 24.1 µM (active)

COc1cc(NC(=O)c2ccccc2)c(OC)cc1NC(=O)Cc1ccc(Br)cc1
EC50 [1]: 29.6 µM (inactive) | EC50 [2]: > 99 µM (inactive)

CC(=O)Oc1cc2c(c(C)c1OC(C)=O)CC=C1[C@]3(C)CC[C@]4(C)CC[C@@](C)(C(=O)O)CC4[C@]3(C)CC[C@]12C (some centres not stated)
AC50 (Cytochrome P450 3A4): 31.6 µM (inconclusive)

NC(=O)c1c(NC(=O)Cn2nc(C(=O)O)c3ccccc3c2=O)sc2c1CCC2
IC50 (H9c2): > 79 µM (inactive)

COc1ccc(OC)c(C(=O)COC(=O)c2ccc([N+](=O)[O-])o2)c1
IC50 (H9c2): > 79 µM (inactive)

N#CSCC(=O)c1cccc2ccccc12
IC50 (Large T antigen): 20.6 µM (active) | AC50 [13]: 1.61 µM (active)

COc1cc(O)c(C(=O)/C=C/c2ccccc2)c(OC)c1 [FLAVOKAWAIN B]
AC50 (Cytochrome P450 3A4): 15.8 µM (inconclusive)

CCOC(=O)c1cc2c(=O)n3ccccc3nc2n(Cc2ccco2)/c1=N/C(=O)c1cccnc1
IC50 (H9c2): 24.3 µM (active)

CCCCCCCC#Cc1ccccc1/C=N/[S+]([O-])C(C)(C)C (configuration not stated)
AC50 (Cytochrome P450 3A4): 3.16 µM (inconclusive)

Oc1nc(CN2CCCC2)nc2sc3c(c12)CCC3
IC50 (H9c2): > 79 µM (inactive)

O=C(C1CC1)N1CCN(c2ccc(O)cc2)CC1
IC50 (Large T antigen): 11.5 µM (active)

Cc1nc(OCc2ccccc2)c2ccccc2n1
IC50 (H9c2): > 79 µM (inactive)

COc1ccc(C2/C=C\CN(S(=O)(=O)c3cccc4cccnc34)CC(=O)N2Cc2ccc(F)cc2)cc1 (configuration not stated)
IC50 (H9c2): > 79 µM (inactive)

O=C(NCCCc1ccccc1)c1cccc([N+](=O)[O-])c1
IC50 (Fatty acid synthase [14]): 5.56 µM (active) | IC50 (Fatty acid synthase [15]): 4.33 µM (active) | EC50 [16]: > 53 µM (inactive) | IC50 [17]: > 47.1 µM (inactive)

COc1ccc(OCC(=O)Nc2c(C(=O)N(CCN(C)C)Cc3ccco3)oc3ccccc23)cc1
CC50 [18]: > 40 µM (active) | EC50 [3]: > 160 µM (inactive) | EC50 [4]: > 38 µM (not active)

CCN1C[C@@]2(COC)C3[C@@H](OC)C4[C@@H]1[C@@]3(C1C[C@@]3(O)[C@H](OC(=O)c5ccccc5)C1[C@]4(OC(C)=O)[C@@H](O)[C@@H]3OC)[C@@H](OC)C[C@H]2O (some centres not stated)
AC50 (Cytochrome P450 3A4): 31.6 µM (inconclusive)

COc1ccc(Cl)cc1NC(=O)CN(C)C(=O)Cn1[nH]c(=O)c2ccccc2c1=O
IC50 (H9c2): 20.7 µM (active)

Cc1ccc(/C=N/NC(=O)C2=NNC(c3ccccc3)(c3ccccc3)C2)c(O)c1
EC50 (Streptokinase A): > 150 µM (not active) | EC50 [3]: 8.56 µM (active) | EC50 (Streptococcus): > 150 µM (not active) | EC50 [4]: 2.3 µM (active) | EC50 [19]: 2.9 µM (active)

CCN(CC)C(=O)c1ccc2c3c(cccc13)C(=O)N(CCc1ccc(OC)c(OC)c1)C2=O
IC50 (H9c2): > 79 µM (inactive)

CCc1cc(C(=O)N/N=C/c2ccc(O)cc2)c2ccccc2n1
IC50 (Large T antigen): > 100 µM (active)
